Several values for one entry are separate records, joined by “and”; a condition that tells them apart may be missing. Equal values may be shown once.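 Grown in 96-well plates, cells were treated for 48 hours with each compound at five concentrations. Insufficient inhibition: endpoint recorded as highest concentration tested. At the GI50, growth is halved. Definition used: TGI = concentration required for complete inhibition of growth.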
How the values were obtained:
Assay in all cases: DTP human tumour cell line panel, 48 h
COLO 205 colon = tested on: COLO 205 colon
HT29 colon = tested on: HT29 colon
IGROV1 ovarian = tested on: IGROV1 ovarian
MOLT-4 leukemia = tested on: MOLT-4 leukemia
RPMI-8226 leukemia = tested on: RPMI-8226 leukemia
RXF 393 renal = tested on: RXF 393 renal
SK-OV-3 ovarian = tested on: SK-OV-3 ovarian
SR leukemia = tested on: SR leukemia
T-47D breast = tested on: T-47D breast
UACC-62 melanoma = tested on: UACC-62 melanoma

Row | SMILES | GI50 (COLO 205 colon) | TGI (COLO 205 colon) | GI50 (HT29 colon) | GI50 (IGROV1 ovarian) | TGI (IGROV1 ovarian) | GI50 (MOLT-4 leukemia) | TGI (MOLT-4 leukemia) [µM] | GI50 (RPMI-8226 leukemia) | TGI (RPMI-8226 leukemia) | GI50 (RXF 393 renal) | TGI (RXF 393 renal) | GI50 (SK-OV-3 ovarian) | TGI (SK-OV-3 ovarian) | GI50 (SR leukemia) | TGI (SR leukemia) | GI50 (T-47D breast) [µM] | TGI (T-47D breast) | GI50 (UACC-62 melanoma) [µM] | TGI (UACC-62 melanoma) [µM] | TGI (HT29 colon)
1 | COc1ccc2c(c1)nc(NNC(=O)c1cnccn1)c1cccn12 | 0.264 µM | 3.01 µM | 0.354 µM | 0.107 µM | 2.22 µM | 0.159 µM | > 85.5 | 0.435 µM | 4.51 µM | 0.689 µM | 2.47 µM | 0.281 µM | 3 µM | 0.24 µM | > 41.3 µM | 0.348 | 3.99 µM | 0.268 | 2.99 | 
2 | COc1ccc(-c2c(C)c(C(=O)O)nc(-c3ccc4c(O)c(OC)c5c(c4n3)=NC(C)(C)N=5)c2N)c(O)c1OC |  | 77.1 µM |  |  | > 100 µM |  | 29.7 |  | 86.6 µM |  | 51.7 µM |  | 65.6 µM |  | 1.94 µM |  | > 100 µM |  | 62.2 | > 100 µM
3 | C=CC(=O)N1CCC(c2ccc(C(N)=O)c(-c3ccc(Oc4ccccc4)cc3)n2)CC1 | 42 µM | > 100 µM | 46.7 µM | 19.1 µM | > 100 µM | 27.3 µM | > 100 | 20.4 µM | 73.7 µM | 12.5 µM | 53.6 µM | 23.4 µM | > 100 µM | 28 µM | > 100 µM | 16.1 | 95.7 µM | 30 | > 100 | > 100 µM
4 | CN(C)c1ccc(Nc2c3ccccc3nc3ccccc23)cc1 | 0.82 µM | 2.16 µM | 0.53 µM | 0.59 µM | 2.91 µM | 0.357 µM | 5.18 | 0.984 µM | 3.9 µM | 1.21 µM | 2.61 µM | 1.27 µM | 3.77 µM | 0.297 µM | 1.35 µM | 1.56 | 4.01 µM | 1.19 | 2.98 | 2.34 µM
5 | CCOc1ccc2c(-c3ccnc(Nc4cc(OC)cc(C(F)(F)F)c4)n3)cnn2n1 | > 25 µM | > 25 µM | 8.4 µM | 4.87 µM | > 25 µM | > 25 µM | > 25 | > 18.3 µM | > 25 µM | 10.8 µM | > 23.6 µM | > 25 µM | > 25 µM | 1.32 µM | > 25 µM | 1.26 | > 25 µM | > 10.9 | > 25 | > 25 µM
6 | Cc1ccc2nc3ccccc3c(NCc3ccc(Cl)cc3)c2c1 | 1.27 µM | 3.39 µM | 1.8 µM | 2.95 µM | 10.2 µM | 1.59 µM | 5.5 | 1.44 µM | 4.1 µM | 1.98 µM | 8.08 µM | 7.7 µM | 15.8 µM | 1.48 µM | 3.84 µM | 7.03 | 19.5 µM | 6.89 | 14 | 7.73 µM
7 | O=C(NCCN1CCOCC1)OCc1nc2nc(Cl)nc(N3CCOCC3)c2[nH]1 | > 100 µM | > 100 µM | > 100 µM | 2.7 µM | > 100 µM | 3.32 µM | > 100 | 0.701 µM | > 100 µM | 1.87 µM | 6.78 µM | 5.28 µM | > 100 µM | 0.728 µM | > 100 µM | > 100 | > 100 µM | 2.98 | > 100 | > 100 µM
8 | COC(=O)c1c2c(c(C)[n+]([O-])c1C)C(=O)C=C(NCc1ccccc1)C2=O | 0.274 µM | 0.776 µM | 0.384 µM | 0.492 µM | 1.87 µM | 0.619 µM | 2.83 | 1.36 µM | 4.28 µM | 1.23 µM | 2.73 µM | 2.03 µM | 4.18 µM | 0.895 µM | 5.66 µM | 0.316 | 1.59 µM | 0.286 | 1.21 | 2.78 µM
9 | C[C@H]1[C@H](C)N1CC(O)Cn1ccnc1[N+](=O)[O-] (some centres undefined) |  | > 100 µM |  |  | > 100 µM |  | > 100 |  | > 100 µM |  | > 100 µM |  | > 100 µM |  | > 100 µM |  | > 100 µM |  | > 100 | > 100 µM
10 | COc1ccc([C@H](CC(=O)O)N2CCN(CCCc3ccc4c(n3)NCCC4)C2=O)cn1 | > 100 µM | > 100 µM | 0.794 µM | > 38.1 µM | > 100 µM | > 100 µM | > 100 | > 100 µM | > 100 µM | 0.136 µM | > 100 µM | > 100 µM | > 100 µM | > 100 µM | > 100 µM | 0.382 | 4.65 µM | > 100 | > 100 | > 100 µM
11 | CCCCNNC(=O)c1ccc(Br)cc1 | 2.21 µM | 9.92 µM | 1.92 µM | 8.35 µM | > 50 µM | 2.51 µM | > 50 | 0.956 µM | > 50 µM | 4.53 µM | 30.4 µM | 8.54 µM | > 50 µM | 2.76 µM | > 50 µM | 1.11 | 7.49 µM | 1.3 | 7.51 | > 39 µM
12 | O=C(CCN1CCCC1)Nc1ccc2c(NCc3ccccc3)c3ccccc3nc2c1 | 0.319 µM | 1.36 µM | 0.324 µM | 0.383 µM | 1.67 µM | 0.364 µM | 2.03 | 0.411 µM |  | 0.349 µM | 1.38 µM | 0.43 µM | 2.56 µM | 0.261 µM | 1.58 µM | 0.562 | 2.89 µM | 0.454 | 1.67 | 1.7 µM
13 | CN(C)C(=O)Nc1nc2cc(Cl)c(Cl)cc2[nH]1 | 0.661 µM | 5.08 µM | 0.393 µM | 1.15 µM | > 100 µM | 1.01 µM | > 70.4 | 1.37 µM | > 100 µM | 1.63 µM | > 28.7 µM | 1.09 µM | > 56.6 µM | 0.222 µM |  | 0.655 | > 100 µM | 0.382 | > 100 | > 32.5 µM
14 | O=C1CCc2c(sc3[nH]c(=S)n(-c4cc(C(F)(F)F)cc(C(F)(F)F)c4)c(=O)c23)C1 | 0.258 µM | 0.668 µM | 0.939 µM | 0.446 µM | 3.44 µM | 0.636 µM | 9.15 | 0.411 µM | 3.03 µM | 0.392 µM | 5.16 µM | 0.947 µM | 5.54 µM | 0.516 µM | > 100 µM | 0.385 | 2.46 µM | 0.294 | 1.23 | > 33.6 µM
15 | C/C(=C\c1ccn(-c2ccccc2N)n1)[C@@H]1C[C@@H]2O[C@]2(C)CCC[C@H](C)[C@H](O)[C@@H](C)C(=O)C(C)(C)[C@@H](O)CC(=O)O1 | 0.0212 µM | 0.641 µM | 0.0206 µM | 0.247 µM | > 50 µM | 0.0341 µM | > 42.2 | 0.0188 µM | > 24.1 µM | 0.0526 µM | 0.604 µM | 0.081 µM | > 50 µM | 0.0267 µM | > 50 µM | 0.0692 | > 50 µM | 0.111 | > 50 | > 50 µM
16 | COc1ccc(/C=C(/c2ccccc2)[N+](=O)[O-])c(OC)c1 | 2.04 µM | 4.28 µM | 2.88 µM | 1.47 µM | 2.95 µM | 2.14 µM | 6.77 | 0.372 µM | 1.64 µM | 1.53 µM | 3.03 µM | 3.1 µM | 9.57 µM | 0.641 µM | 16.2 µM | 0.668 | 4.21 µM | 1.22 | 2.7 | 10.3 µM
17 | O=S(=O)(O)O |  | 2210 µM |  |  | 2170 µM |  | 1680 |  | 2500 µM |  | 1500 µM |  | 2650 µM |  | > 1810 µM |  | 1770 µM |  | 1940 | 1450 µM
18 | OC1(c2ccccc2)C2CC=CC2C1(c1ccccc1)c1ccccc1 (centres undefined) |  | 44.6 µM |  |  | 48.9 µM |  | > 100 |  | 86.5 µM |  | 46.3 µM |  | > 100 µM |  | > 100 µM |  | > 100 µM |  | > 100 | 69.8 µM
19 | O=C1NC(N/N=C\C(O)C(O)C(O)C(O)CO)=N/C1=C/c1ccccc1 (centres undefined) | > 100 µM and 19.3 µM | > 100 µM and 41.6 µM | > 100 µM and 23.2 µM | > 100 µM and 16.2 µM | > 100 µM and 33.3 µM | 22.3 µM and 2.74 µM and 25.7 µM |  | 58.8 µM and 19.6 µM and > 100 µM | > 100 µM and 45.2 µM | > 100 µM and 21.7 µM | > 100 µM and 44 µM | > 100 µM and 20.2 µM | > 100 µM and 37.8 µM | 51 µM and 16.3 µM and 99.4 µM | > 100 µM and 51.2 µM |  | > 100 µM and 26.7 µM |  | > 100 | > 100 µM and 44.5 µM
20 | C=C1C(=O)O[C@H]2[C@H]1CC/C(COC(=O)CCCCCC(=O)OC/C1=C/CC[C@@]3(C)O[C@H]3[C@H]3OC(=O)C(=C)[C@@H]3CC1)=C\CC[C@@]1(C)O[C@@H]21 | 1.46 µM | 3.32 µM | 1.97 µM | 2.51 µM | 9.32 µM | 0.633 µM | 4.1 | 1.69 µM | 5.51 µM | 1.1 µM | 2.41 µM | 12 µM | 31 µM | 0.336 µM | 5.58 µM | 1.96 | 5.74 µM | 2.02 | 4.92 | 3.84 µM
21 | CN1C(=O)c2ccc3ccccc3c2C1=O |  | > 100 µM |  |  | > 100 µM |  | > 100 |  | > 100 µM |  | 96.6 µM |  | > 100 µM |  | > 100 µM |  | > 100 µM |  | > 100 | > 100 µM
22 | O=c1c2c([nH]c3nccn13)CCC2 |  | > 10 µM |  |  | > 10 µM |  | > 10 |  | > 10 µM |  | > 10 µM |  | > 10 µM |  | > 10 µM |  | > 10 µM |  | > 10 | > 10 µM
